# Measured values from ChEMBL document CHEMBL4138122, “Azaphenothiazines - promising phenothiazine derivatives. An insight into nomenclature, synthesis, structure elucidation and biological properties” (Eur J Med Chem, 2017).
# pIC50: −log10 of the molar value.
# How the values were obtained:
# [1] = molecular target: Intercellular adhesion molecule 1 (Homo sapiens, UniProt P05362); test: Inhibition of ICAM1 (unknown origin)
# C32 = test: Cytotoxicity against human C32 cells; assay type: functional, cell-based
# SNB-19 = test: Cytotoxicity against human SNB19 cells; assay type: functional, cell-based
# T47D = test: Cytotoxicity against human T47D cells; assay type: functional, cell-based
# MDA-MB-231 = test: Cytotoxicity against human MDA-MB-231 cells; assay type: functional, cell-based
# Staphylococcus aureus = test: Antibacterial activity against Staphylococcus aureus; assay type: functional
# Liver = test: Antioxidant activity in rat liver microsomal membranes assessed as inhibition of Fe(2+)/ascorbate-induced lipid peroxidation; assay type: functional, microsomes, microsome
# MCF7 = test: Cytotoxicity against human MCF7 cells; assay type: functional, cell-based
# PBMC = test: Cytotoxicity in human PBMCs assessed as reduction in cel viability at 50 ug/ml; assay type: cell-based
# Escherichia coli = test: Antibacterial activity against Escherichia coli; assay type: functional
# Bacillus subtilis = test: Antibacterial activity against Bacillus subtilis; assay type: functional
# [2] = Displacement of [3H]-diazepam from benzodiazepine receptor in rat brain membranes after 30 mins; assay type: cell membranes, Membrane
# Chain of Intercellular adhesion molecule 1 (P05362 whole entry): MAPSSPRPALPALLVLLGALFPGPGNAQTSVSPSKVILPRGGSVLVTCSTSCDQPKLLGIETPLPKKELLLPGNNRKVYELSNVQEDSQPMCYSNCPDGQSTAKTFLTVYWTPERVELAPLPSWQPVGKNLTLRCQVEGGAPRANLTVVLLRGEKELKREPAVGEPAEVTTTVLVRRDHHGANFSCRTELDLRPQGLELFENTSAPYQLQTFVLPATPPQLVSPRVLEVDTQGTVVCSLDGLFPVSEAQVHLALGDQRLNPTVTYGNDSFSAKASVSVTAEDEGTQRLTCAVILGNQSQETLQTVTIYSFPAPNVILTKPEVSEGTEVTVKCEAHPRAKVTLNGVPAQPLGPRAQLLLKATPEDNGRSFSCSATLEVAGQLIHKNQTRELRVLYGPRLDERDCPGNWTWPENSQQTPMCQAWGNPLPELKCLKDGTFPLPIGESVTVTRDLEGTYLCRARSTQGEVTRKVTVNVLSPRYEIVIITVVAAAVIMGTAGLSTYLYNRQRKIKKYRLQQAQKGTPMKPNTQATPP
compound,measurement,setting,value
O=C(O)c1ccc(C2CCN(Cc3ccc4c(c3)Nc3nccnc3S4)CC2)cc1,pIC50,[1],6.00 to 6.38
C[n+]1cc2c(c3ccccc31)Nc1cc(OCCN3CCCCC3)ccc1S2.[Cl-],IC50,C32,≤ 3 µg/mL
same,IC50,SNB-19,≤ 3 µg/mL
same,IC50,T47D,≤ 3 µg/mL
same,IC50,MDA-MB-231,≤ 3 µg/mL
CCCCOc1ccc2c(c1)Nc1c(c[n+](C)c3ccccc13)S2.[Cl-],IC50,C32,0.5 to 7.5 µg/mL
same,IC50,SNB-19,0.7 to 11.5 µg/mL
same,IC50,MDA-MB-231,0.5 to 12 µg/mL
Cn1c(=O)c2c(c3ccccc31)Nc1ccccc1S2,MIC,Staphylococcus aureus,>=200 ug
O=[N+]([O-])c1ccc(N2c3ccncc3Sc3ccncc32)c([N+](=O)[O-])c1,pIC50,Liver,3.97
CCN(CC)CC#CCN1c2ccncc2Sc2ccncc21,IC50,C32,24.8 to 29.2 µg/mL
C#CCN1c2cccc(C(F)(F)F)c2Sc2cnc3ccccc3c21,IC50,MDA-MB-231,7.71 µg/mL
CN1c2ccncc2Sc2ncccc21,IC50,MCF7,28.4 to 32.9 µg/mL
CN1CCCCC1CCN1c2ccncc2Sc2ncccc21 (centres undefined),IC50,MCF7,28.4 to 32.9 µg/mL
CCN(C)CC#CCN1c2cnccc2Sc2cccnc21,IC50,C32,26.1 to 27.5 µg/mL
same,IC50,SNB-19,26.1 to 27.5 µg/mL
same,Activity,PBMC,<= 22%
same,IC50,T47D,26.1 to 27.5 µg/mL
C=CCN1c2ccncc2Sc2ncccc21,IC50,MCF7,28.4 to 32.9 µg/mL
CCN(CC)CCCN1c2ccc3ccccc3c2Sc2cc3ccccc3nc21,IC50,C32,0.8 µg/mL
same,IC50,SNB-19,0.98 µg/mL
same,IC50,T47D,5.9 µg/mL
C[n+]1cc2c(c3ccccc31)Nc1cc(OCCN3CCOCC3)ccc1S2.[Cl-],IC50,C32,≤ 3 µg/mL
same,IC50,SNB-19,≤ 3 µg/mL
same,IC50,T47D,≤ 3 µg/mL
same,IC50,MDA-MB-231,≤ 3 µg/mL
C(#CCN1c2ccncc2Sc2ccncc21)CN1CCCCC1,IC50,C32,24.8 to 29.2 µg/mL
CSc1ccc2c(c1)Sc1cnc3ccccc3c1N2Cc1ccccc1,IC50,MCF7,8.71 µg/mL
same,IC50,MDA-MB-231,7.59 µg/mL
O=C(O)CC1CCN(Cc2ccc3c(c2)Nc2nccnc2S3)CC1,pIC50,[1],6.28
CN1CCCCC1CCN1c2ccc(F)cc2Sc2cnc3ccccc3c21 (centres undefined),IC50,MCF7,5.92 to 6.96 µg/mL
same,IC50,MDA-MB-231,5.92 to 6.96 µg/mL
C[n+]1cc2c(c3ccccc31)Nc1c(O)cc(-c3ccccc3)cc1S2.[Cl-],IC50,C32,0.5 to 7.5 µg/mL
same,IC50,SNB-19,0.7 to 11.5 µg/mL
same,IC50,MDA-MB-231,0.5 to 12 µg/mL
O=[N+]([O-])c1cnc2c(c1)Sc1cc(Cl)ccc1N2,inhibition zone (IZ),Escherichia coli,12 mm
same,inhibition zone (IZ),Staphylococcus aureus,8 - 15 mm
same,inhibition zone (IZ),Bacillus subtilis,8 - 12 mm
C[n+]1cc2c(c3ccccc31)Nc1cc(OCCN3CCCC3)ccc1S2.[Cl-],IC50,C32,≤ 3 µg/mL
same,IC50,SNB-19,≤ 3 µg/mL
same,IC50,T47D,≤ 3 µg/mL
same,IC50,MDA-MB-231,≤ 3 µg/mL
COc1ccc2c(c1)Sc1c[n+](C)c3ccccc3c1N2.[Cl-],IC50,C32,0.5 to 7.5 µg/mL
same,IC50,SNB-19,0.7 to 11.5 µg/mL
same,IC50,MDA-MB-231,0.5 to 12 µg/mL
O=[N+]([O-])c1cnc2c(c1)Sc1cccc(F)c1N2,inhibition zone (IZ),Escherichia coli,7 - 12 mm
same,inhibition zone (IZ),Staphylococcus aureus,8 - 15 mm
same,inhibition zone (IZ),Bacillus subtilis,8 - 12 mm
C/C(=C\CC1CCN(Cc2ccc3c(c2)Nc2nccnc2S3)CC1)C(=O)O,pIC50,[1],6.38
CC(C)(CCC1CCN(Cc2ccc3c(c2)Nc2nccnc2S3)CC1)C(=O)O,pIC50,[1],6.00 to 6.38
c1ccc2c3c(cnc2c1)Nc1cnc2ccccc2c1S3,pIC50,Liver,6.00
NC(=O)C1CCN(Cc2ccc3c(c2)Nc2nccnc2S3)CC1,pIC50,[1],5.85 to 6.57
c1cc2c(cn1)Sc1ccncc1N2CCN1CCCC1,pIC50,Liver,3.90
c1ccc2c(c1)Nc1nc3ccccc3cc1S2,IC50,Liver,2 to 3 µg/mL
CC(CCC1CCN(Cc2ccc3c(c2)Nc2nccnc2S3)CC1)C(=O)O (centres undefined),pIC50,[1],6.00 to 6.38
COc1ccc2c(c1)Nc1c(c[n+](C)c3ccccc13)S2.[Cl-],IC50,C32,0.5 to 7.5 µg/mL
same,IC50,SNB-19,0.7 to 11.5 µg/mL
same,IC50,MDA-MB-231,0.5 to 12 µg/mL
O=S(=O)(NC1CCN(Cc2ccc3c(c2)Nc2nccnc2S3)CC1)N1CCCCC1,pIC50,[1],5.85 to 6.57
NS(=O)(=O)NC1CCN(Cc2ccc3c(c2)Nc2nccnc2S3)CC1,pIC50,[1],5.85 to 6.57
c1ccc2nc3c(cc2c1)Sc1ccc2ccccc2c1N3,IC50,Liver,2 µg/mL
O=c1[nH]c2ccccc2c2c1Sc1ccccc1N2,MIC,Staphylococcus aureus,>=200 ug
NC(=O)C1CCCN(Cc2ccc3c(c2)Nc2nccnc2S3)C1 (centres undefined),pIC50,[1],5.85 to 6.57
O=S(=O)(NC1CCN(Cc2ccc3c(c2)Nc2nccnc2S3)CC1)C(F)(F)F,pIC50,[1],5.85 to 6.57
CCN(CC)CC#CCN1c2cnccc2Sc2cccnc21,IC50,C32,26.1 to 27.5 µg/mL
same,IC50,SNB-19,26.1 to 27.5 µg/mL
same,Activity,PBMC,<= 22%
same,IC50,T47D,26.1 to 27.5 µg/mL
c1cnc2c(n1)Nc1cc(CN3CCC3)ccc1S2,pIC50,[1],5.85 to 6.57
CNS(=O)(=O)NC1CCN(Cc2ccc3c(c2)Nc2nccnc2S3)CC1,pIC50,[1],5.85 to 6.57
O=[N+]([O-])c1cnc2c(c1)Sc1cccc(Br)c1N2,inhibition zone (IZ),Escherichia coli,7 - 12 mm
same,inhibition zone (IZ),Staphylococcus aureus,8 - 15 mm
same,inhibition zone (IZ),Bacillus subtilis,8 - 12 mm
C#CCN1c2ccncc2Sc2ncccc21,IC50,MCF7,28.4 to 32.9 µg/mL
N#Cc1c2c(c[nH]c1=O)Sc1ccc([N+](=O)[O-])cc1N2,pIC50,[2],6.04 to 6.51
NS(=O)(=O)N1CCN(Cc2ccc3c(c2)Nc2nccnc2S3)CC1,pIC50,[1],5.85 to 6.57
CN(C)CCCN1c2ccc(F)cc2Sc2cnc3ccccc3c21,IC50,MCF7,7.91 µg/mL
same,IC50,MDA-MB-231,7.43 µg/mL
O=[N+]([O-])c1cnc2c(c1)Sc1cccc(Cl)c1N2,inhibition zone (IZ),Escherichia coli,7 - 12 mm
same,inhibition zone (IZ),Staphylococcus aureus,8 - 15 mm
same,inhibition zone (IZ),Bacillus subtilis,12 mm
O=[N+]([O-])c1cnc2c(c1)Sc1cc(F)ccc1N2,inhibition zone (IZ),Escherichia coli,7 - 12 mm
same,inhibition zone (IZ),Staphylococcus aureus,8 - 15 mm
same,inhibition zone (IZ),Bacillus subtilis,12 mm
N#Cc1c2c(c[nH]c1=O)S(=O)(=O)c1c(Cl)cccc1N2,pIC50,[2],6.04 to 6.51
O=C(O)CCC1CCN(Cc2ccc3c(c2)Nc2nccnc2S3)CC1,pIC50,[1],6.33
c1ccc2nc3c(cc2c1)Sc1c(ccc2ccccc12)N3,IC50,Liver,6 µg/mL
N#Cc1c(O)ncc2c1Nc1cc(Cl)ccc1S2,pIC50,[2],6.04 to 6.51
c1cnc2c(n1)Nc1cc(CN3CCCCC3)ccc1S2,pIC50,[1],5.85 to 6.57
CN(C)CCCN1c2ccncc2Sc2ncccc21,IC50,C32,6.3 µg/mL
same,IC50,MCF7,11.3 µg/mL
O=C(O)CC1CC2CCC(C1)N(Cc1ccc3c(c1)Nc1nccnc1S3)C2 (centres undefined),pIC50,[1],6.00 to 6.38
CN1c2ccccc2Sc2cnc(O)c(C#N)c21,pIC50,[2],6.04 to 6.51
N#Cc1c(O)ncc2c1Nc1ccccc1S2,pIC50,[2],6.04 to 6.51
O=C(O)C1CCN(Cc2ccc3c(c2)Nc2nccnc2S3)CC1,pIC50,[1],6.00 to 6.38
CCn1c(=O)c2c(c3ccccc31)Nc1ccccc1S2,MIC,Staphylococcus aureus,>=200 ug
c1cnc2c(n1)Nc1cc(CN3CCCCCCC3)ccc1S2,pIC50,[1],5.85 to 6.57
COc1ccc2c(c1)Sc1cc3ccccc3nc1N2,IC50,Liver,2 to 3 µg/mL
N#Cc1c2c(c[nH]c1=O)Sc1ccc(N)cc1N2,pIC50,[2],6.04 to 6.51
c1ccc2nc3c(cc2c1)Sc1c(ccc2ncccc12)N3,pIC50,Liver,4.80
c1cnc(N2c3ccncc3Sc3ncccc32)nc1,IC50,MCF7,0.73 µg/mL
c1cnc2c(c1)Nc1ccncc1S2,IC50,C32,0.46 µg/mL
same,IC50,SNB-19,0.46 µg/mL
same,IC50,MCF7,0.72 µg/mL
O=[N+]([O-])c1cnc2c(c1)Sc1cc(Br)ccc1N2,inhibition zone (IZ),Escherichia coli,7 - 12 mm
same,inhibition zone (IZ),Staphylococcus aureus,15 mm
same,inhibition zone (IZ),Bacillus subtilis,8 - 12 mm
C[n+]1cc2c(c3ccccc31)Nc1ccc(N3CCCCC3)cc1S2.[Cl-],IC50,C32,0.5 to 7.5 µg/mL
same,IC50,SNB-19,0.7 to 11.5 µg/mL
same,IC50,MDA-MB-231,0.5 to 12 µg/mL
CC(=O)NC1CCN(Cc2ccc3c(c2)Nc2nccnc2S3)CC1,pIC50,[1],5.85 to 6.57
C[n+]1cc2c(c3ccccc31)Nc1cccc(O)c1S2.[Cl-],MIC,Escherichia coli; Escherichia coli,14 µg/mL
C[n+]1cc2c(c3ccccc31)Nc1ccc(N3CCNCC3)cc1S2.[Cl-],IC50,C32,0.5 to 7.5 µg/mL
same,IC50,SNB-19,0.7 to 11.5 µg/mL
same,IC50,MDA-MB-231,0.5 to 12 µg/mL
c1cnc2c(n1)Nc1cc(CN3CCCCCC3)ccc1S2,pIC50,[1],5.85 to 6.57
CN(C)S(=O)(=O)N1CCN(Cc2ccc3c(c2)Nc2nccnc2S3)CC1,pIC50,[1],5.85 to 6.57
Clc1ccc2c(c1)Sc1cc3ccccc3nc1N2,IC50,Liver,2 to 3 µg/mL
CN(C)CCCOc1ccc2c(c1)Nc1c(c[n+](C)c3ccccc13)S2.[Cl-],IC50,C32,≤ 3 µg/mL
same,IC50,SNB-19,≤ 3 µg/mL
same,IC50,T47D,≤ 3 µg/mL
same,IC50,MDA-MB-231,≤ 3 µg/mL
C(#CCN1c2cnccc2Sc2cccnc21)CN1CCN(c2ccccc2)CC1,IC50,C32,26.1 to 27.5 µg/mL
same,IC50,SNB-19,33.1 µg/mL
same,Activity,PBMC,<= 22%
same,IC50,T47D,45.8 µg/mL
O=S(=O)(NC1CCN(Cc2ccc3c(c2)Nc2nccnc2S3)CC1)c1ccccc1,pIC50,[1],5.85 to 6.57
CN1CCN(CC#CCN2c3ccncc3Sc3ccncc32)CC1,IC50,C32,24.8 to 29.2 µg/mL
same,IC50,SNB-19,21.2 µg/mL
same,IC50,T47D,9.6 µg/mL
CC(=O)N1CCN(Cc2ccc3c(c2)Nc2nccnc2S3)CC1,pIC50,[1],5.85 to 6.57
CCN(C)CC#CCN1c2ccncc2Sc2ccncc21,IC50,C32,24.8 to 29.2 µg/mL
FC(F)(F)c1cccc2c1Sc1cnc3ccccc3c1N2,IC50,SNB-19,10 µg/mL
same,IC50,MCF7,9.76 µg/mL
